Experimental data published in ChEMBL document CHEMBL3046319, “PCR-RFLP detection of the E198A mutation conferring resistance to benzimidazoles in field isolates of Monilinia laxa from Greece” (Crop Prot, 2012).
≈ marks a conversion by molar mass, not a printed value. Calls of active or inactive are those of the source. The calls are words filed in the database; no cut-off is given here.

Legend:
Monilinia laxa [1] = test: Fungicidal activity against Monilinia laxa isolate MLBO2 assessed as reduction in mycelial growth rate at 25 degC after 4 days; format: functional, organism-based; details: isolate MLBO2, 96 h
Monilinia laxa [2] = test: Fungicidal activity against Monilinia laxa isolate B1 assessed as reduction in mycelial growth rate at 25 degC after 4 days; format: functional, organism-based; details: isolate B1, 96 h
Monilinia laxa [3] = test: Fungicidal activity against Monilinia laxa isolate MLK7 assessed as reduction in mycelial growth rate at 1 to 10 ug/ml at 31 degC after 5 days; format: functional, organism-based
Monilinia laxa [4] = test: Fungicidal activity against Monilinia laxa isolate MLK2 assessed as reduction in mycelial growth rate at 1 to 10 ug/ml at 31 degC after 5 days; format: functional, organism-based
Monilinia laxa [5] = test: Fungicidal activity against Monilinia laxa isolate MLG4 assessed as reduction in mycelial growth rate at 1 to 10 ug/ml at 31 degC after 5 days; format: functional, organism-based
Monilinia laxa [6] = test: Fungicidal activity against Monilinia laxa isolate MLG2 assessed as reduction in mycelial growth rate at 1 to 10 ug/ml at 31 degC after 5 days; format: functional, organism-based
Monilinia laxa [7] = test: Fungicidal activity against Monilinia laxa isolate MLP4 assessed as mean number of conidia produced in the colony at 25 degC after 12 days by haemocytometer; format: functional
Monilinia laxa [8] = test: Fungicidal activity against Monilinia laxa isolate MLC2 assessed as mean number of conidia produced in the colony at 25 degC after 12 days by haemocytometer; format: functional
Monilinia laxa [9] = test: Fungicidal activity against Monilinia laxa isolate MLBO5 assessed as mean number of conidia produced in the colony at 25 degC after 12 days by haemocytometer; format: functional
Monilinia laxa [10] = test: Fungicidal activity against Monilinia laxa isolate MLBO2 assessed as mean mycelial colony diameter at 25 degC after 4 days; format: functional
Monilinia laxa [11] = test: Fungicidal activity against Monilinia laxa isolate MLK1 assessed as mycelial growth at 1 ug/ml at 25 degC after 4 days; format: functional
Monilinia laxa [12] = test: Fungicidal activity against Monilinia laxa isolate MLAl8 assessed as reduction in mycelial growth rate at 1 to 10 ug/ml at 31 degC after 5 days; format: functional, organism-based
Monilinia laxa [13] = test: Fungicidal activity against Monilinia laxa isolate MLP7 assessed as reduction in mycelial growth rate at 1 to 10 ug/ml at 28 degC after 8 days; format: functional, organism-based
Monilinia laxa [14] = test: Fungicidal activity against Monilinia laxa isolate MLK2 assessed as reduction in mycelial growth rate at 1 to 10 ug/ml at 28 degC after 8 days; format: functional, organism-based
Monilinia laxa [15] = test: Fungicidal activity against Monilinia laxa isolate MLG1 assessed as reduction in mycelial growth rate at 25 degC after 4 days; format: functional, organism-based; details: isolate MLG1, 96 h
Monilinia laxa [16] = test: Fungicidal activity against Monilinia laxa isolate MLAl8 assessed as reduction in mycelial growth rate at 1 to 10 ug/ml at 28 degC after 8 days; format: functional, organism-based
Monilinia laxa [17] = test: Fungicidal activity against Monilinia laxa isolate MLP4 assessed as mycelial growth at 1 ug/ml at 25 degC after 4 days; format: functional
Monilinia laxa [18] = test: Fungicidal activity against Monilinia laxa isolate MLC4 assessed as reduction in mycelial growth rate at 25 degC after 4 days; format: functional, organism-based; details: isolate MLC4, 96 h
Monilinia laxa [19] = test: Fungicidal activity against Monilinia laxa isolate KX5 assessed as reduction in mycelial growth rate at 1 to 10 ug/ml at 25 to 28 degC; format: functional, organism-based
Monilinia laxa [20] = test: Fungicidal activity against Monilinia laxa isolate MLX1 assessed as reduction in mycelial growth rate at 1 to 10 ug/ml at 25 to 28 degC; format: functional, organism-based
Monilinia laxa [21] = test: Fungicidal activity against Monilinia laxa isolate MLP7 assessed as reduction in mycelial growth rate at 1 to 10 ug/ml at 25 to 28 degC; format: functional, organism-based
Monilinia laxa [22] = test: Fungicidal activity against Monilinia laxa isolate MLP4 assessed as reduction in mycelial growth rate at 1 to 10 ug/ml at 25 to 28 degC; format: functional, organism-based
Monilinia laxa [23] = test: Fungicidal activity against Monilinia laxa isolate MLK4 assessed as reduction in mycelial growth rate at 1 to 10 ug/ml at 25 to 28 degC; format: functional, organism-based
Monilinia laxa [24] = test: Fungicidal activity against Monilinia laxa isolate MLC3 assessed as reduction in mycelial growth rate at 1 to 10 ug/ml at 25 to 28 degC; format: functional, organism-based
Monilinia laxa [25] = test: Fungicidal activity against Monilinia laxa isolate MLAl8 assessed as reduction in mycelial growth rate at 1 to 10 ug/ml at 25 to 28 degC; format: functional, organism-based
Monilinia laxa [26] = test: Fungicidal activity against Monilinia laxa isolate MLKS1 assessed as reduction in mycelial growth rate at 25 degC after 4 days; format: functional, organism-based; details: isolate MLKS1, 96 h
Monilinia laxa [27] = test: Fungicidal activity against Monilinia laxa isolate MLX5 assessed as mycelial growth at 1 ug/ml at 25 degC after 4 days; format: functional
Monilinia laxa [28] = test: Fungicidal activity against Monilinia laxa isolate MLP4 assessed as reduction in mycelial growth rate at 1 to 10 ug/ml at 31 degC after 5 days; format: functional, organism-based
Monilinia laxa [29] = test: Fungicidal activity against Monilinia laxa isolate MLG1 assessed as mycelial growth at 1 ug/ml at 25 degC after 4 days; format: functional
Monilinia laxa [30] = test: Fungicidal activity against Monilinia laxa isolate KX5 assessed as reduction in mycelial growth rate at 25 degC after 4 days; format: functional, organism-based; details: isolate KX5, 96 h
Monilinia laxa [31] = test: Fungicidal activity against Monilinia laxa isolate MLBO5 assessed as virulence in prune fruits assessed as virulence treated 10 min prior to mycelial inoculation at 24 degC after 10 days relative to isolate MLX1by pathogenicity bioassay; format: functional
Monilinia laxa [32] = test: Fungicidal activity against Monilinia laxa isolate MLBO2 assessed as virulence in prune fruits assessed as virulence treated 10 min prior to mycelial inoculation at 24 degC after 10 days relative to isolate MLX1by pathogenicity bioassay; format: functional
Monilinia laxa [33] = test: Fungicidal activity against Monilinia laxa isolate MLBO1 assessed as reduction in mycelial growth rate at 1 to 10 ug/ml at 31 degC after 5 days; format: functional, organism-based
Monilinia laxa [34] = test: Fungicidal activity against Monilinia laxa isolate B1 assessed as reduction in mycelial growth rate at 1 to 10 ug/ml at 31 degC after 5 days; format: functional, organism-based
Monilinia laxa [35] = test: Fungicidal activity against Monilinia laxa isolate MLNS2 assessed as reduction in mycelial growth rate at 1 to 10 ug/ml at 31 degC after 5 days; format: functional, organism-based
Monilinia laxa [36] = test: Fungicidal activity against Monilinia laxa isolate MLX4 assessed as reduction in mycelial growth rate at 1 to 10 ug/ml at 31 degC after 5 days; format: functional, organism-based
Monilinia laxa [37] = test: Fungicidal activity against Monilinia laxa isolate MLX3 assessed as reduction in mycelial growth rate at 25 degC after 4 days; format: functional, organism-based; details: isolate MLX3, 96 h
Monilinia laxa [38] = test: Fungicidal activity against Monilinia laxa isolate MLP2 assessed as reduction in mycelial growth rate at 25 degC after 4 days; format: functional, organism-based; details: isolate MLP2, 96 h
Monilinia laxa [39] = test: Fungicidal activity against Monilinia laxa isolate MLK24 assessed as reduction in mycelial growth rate at 25 degC after 4 days; format: functional, organism-based; details: isolate MLK24, 96 h
Monilinia laxa [40] = test: Fungicidal activity against Monilinia laxa isolate MLK10 assessed as reduction in mycelial growth rate at 25 degC after 4 days; format: functional, organism-based; details: isolate MLK10, 96 h
Monilinia laxa [41] = test: Fungicidal activity against Monilinia laxa isolate MLK4A assessed as reduction in mycelial growth rate at 25 degC after 4 days; format: functional, organism-based; details: 96 h
Monilinia laxa [42] = test: Fungicidal activity against Monilinia laxa isolate MLKS2 assessed as reduction in mycelial growth rate at 25 degC after 4 days; format: functional, organism-based; details: isolate MLKS2, 96 h

## COC(=O)Nc1nc2ccccc2[nH]1 [CARBENDAZIM]
Monilinia laxa [1]
  EC50: 0.18 µg/mL (≈ 0.941 µM)
Monilinia laxa [2]
  EC50: > 50 µg/mL
Monilinia laxa [3]
  inhibition: Active
Monilinia laxa [4]
  inhibition: Active
Monilinia laxa [5]
  inhibition: Active
Monilinia laxa [6]
  inhibition: Active
Monilinia laxa [7]
  Activity: 3.98 /cm2
Monilinia laxa [8]
  Activity: 5 /cm2
Monilinia laxa [9]
  Activity: 3.92 /cm2
Monilinia laxa [10]
  Activity: 30.2 mm
Monilinia laxa [11]
  Activity: 99.9%
Monilinia laxa [12]
  inhibition: Active
Monilinia laxa [13]
  inhibition: inactive
Monilinia laxa [14]
  inhibition: inactive
Monilinia laxa [15]
  EC50: 0.1 µg/mL (≈ 0.523 µM)
Monilinia laxa [16]
  inhibition: inactive
Monilinia laxa [17]
  Activity: 94.44%
Monilinia laxa [18]
  EC50: 0.09 µg/mL (≈ 0.471 µM)
Monilinia laxa [19]
  inhibition: inactive
Monilinia laxa [20]
  inhibition: inactive
Monilinia laxa [21]
  inhibition: inactive
Monilinia laxa [22]
  inhibition: inactive
Monilinia laxa [23]
  inhibition: inactive
Monilinia laxa [24]
  inhibition: inactive
Monilinia laxa [25]
  inhibition: inactive
Monilinia laxa [26]
  EC50: 0.11 µg/mL (≈ 0.575 µM)
Monilinia laxa [27]
  Activity: 0%
Monilinia laxa [28]
  inhibition: Active
Monilinia laxa [29]
  Activity: 0%
Monilinia laxa [30]
  EC50: > 50 µg/mL
Monilinia laxa [31]
  Activity: 100%
Monilinia laxa [32]
  Activity: 95%
Monilinia laxa [33]
  inhibition: Active
Monilinia laxa [34]
  inhibition: Active
Monilinia laxa [35]
  inhibition: Active
Monilinia laxa [36]
  inhibition: Active
Monilinia laxa [37]
  EC50: > 50 µg/mL
Monilinia laxa [38]
  EC50: 0.06 µg/mL (≈ 0.314 µM)
Monilinia laxa [39]
  EC50: 0.02 µg/mL (≈ 0.105 µM)
Monilinia laxa [40]
  EC50: 0.07 µg/mL (≈ 0.366 µM)
Monilinia laxa [41]
  EC50: 0.12 µg/mL (≈ 0.628 µM)
Monilinia laxa [42]
  EC50: 0.01 µg/mL (≈ 0.0523 µM)
